Assay [1] deals with CATPO E484I variant (Scytalidium thermophilum (Humicola insolens), UniProt M4GGR5, E503I). Kind of assay: biochemical.
The target of assay [2] is T1, T188F (Mycothermus thermophilus, UniProt M4GGR5, T207F).
T1 construct: recombinant, pET-28-TEV-CATPO; contains heme b; Rz 0.8
T1 sequence (M4GGR5 20-717 T207F): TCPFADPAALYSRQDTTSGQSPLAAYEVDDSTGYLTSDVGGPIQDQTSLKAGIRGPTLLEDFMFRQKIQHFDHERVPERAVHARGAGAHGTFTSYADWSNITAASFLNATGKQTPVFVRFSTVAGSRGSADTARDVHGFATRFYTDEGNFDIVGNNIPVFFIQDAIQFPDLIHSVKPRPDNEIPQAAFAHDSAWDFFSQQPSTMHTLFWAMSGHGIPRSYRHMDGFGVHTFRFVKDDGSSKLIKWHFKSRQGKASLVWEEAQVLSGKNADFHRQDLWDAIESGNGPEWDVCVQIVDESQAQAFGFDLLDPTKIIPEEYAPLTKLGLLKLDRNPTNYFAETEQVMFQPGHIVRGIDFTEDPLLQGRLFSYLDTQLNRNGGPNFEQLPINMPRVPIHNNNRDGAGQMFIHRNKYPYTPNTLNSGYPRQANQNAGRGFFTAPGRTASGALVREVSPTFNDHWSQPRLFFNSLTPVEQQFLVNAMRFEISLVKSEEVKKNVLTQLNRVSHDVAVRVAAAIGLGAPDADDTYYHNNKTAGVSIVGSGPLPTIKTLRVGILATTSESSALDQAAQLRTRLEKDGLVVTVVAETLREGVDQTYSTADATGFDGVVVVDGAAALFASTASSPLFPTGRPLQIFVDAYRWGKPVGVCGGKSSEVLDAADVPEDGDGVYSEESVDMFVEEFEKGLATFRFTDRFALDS
Kind of assay: Spectrophotometric phenol oxidase assay without H2O2 at pH 7.0 and 60 °C, initial rates fitted to the Michaelis-Menten equation. It is filed as biochemical. The settings on record: read-out: Phenol oxidase K m; n = 3. How it is done:
(§1) All inhibition assays were performed in triplicate.

Assay [3] addresses T2, E484A (Mycothermus thermophilus, UniProt M4GGR5, E503A).
T2 construct: recombinant, pET-28-TEV-CATPO; contains heme b; Rz 0.8
T2 sequence (M4GGR5 20-717 E503A): T1 sequence (M4GGR5 20-717 T207F) with F188T, E484A
Described as above. It is filed as biochemical. The following applies: read-out: Phenol oxidase K m; n = 3. How it is done:
as §1

For assay [4], the target named is T3, T188D (Mycothermus thermophilus, UniProt M4GGR5, T207D).
T3 construct: recombinant, pET-28-TEV-CATPO; contains heme b; Rz 0.5
T3 sequence (M4GGR5 20-717 T207D): T1 sequence (M4GGR5 20-717 T207F) with F188D
The assay is described as above. It is filed as biochemical. The settings on record: read-out: Phenol oxidase K m; n = 3. How it is done: as §1

The target in assay [5] is CATPO T188D variant (Scytalidium thermophilum (Humicola insolens), UniProt M4GGR5, T207D). As to the kind of experiment: biochemical.

Molecules are shown by their SMILES. Numbering of substitutions follows the chain as printed.

CATPO T188D variant, sequence (M4GGR5 entry or part of it T207D): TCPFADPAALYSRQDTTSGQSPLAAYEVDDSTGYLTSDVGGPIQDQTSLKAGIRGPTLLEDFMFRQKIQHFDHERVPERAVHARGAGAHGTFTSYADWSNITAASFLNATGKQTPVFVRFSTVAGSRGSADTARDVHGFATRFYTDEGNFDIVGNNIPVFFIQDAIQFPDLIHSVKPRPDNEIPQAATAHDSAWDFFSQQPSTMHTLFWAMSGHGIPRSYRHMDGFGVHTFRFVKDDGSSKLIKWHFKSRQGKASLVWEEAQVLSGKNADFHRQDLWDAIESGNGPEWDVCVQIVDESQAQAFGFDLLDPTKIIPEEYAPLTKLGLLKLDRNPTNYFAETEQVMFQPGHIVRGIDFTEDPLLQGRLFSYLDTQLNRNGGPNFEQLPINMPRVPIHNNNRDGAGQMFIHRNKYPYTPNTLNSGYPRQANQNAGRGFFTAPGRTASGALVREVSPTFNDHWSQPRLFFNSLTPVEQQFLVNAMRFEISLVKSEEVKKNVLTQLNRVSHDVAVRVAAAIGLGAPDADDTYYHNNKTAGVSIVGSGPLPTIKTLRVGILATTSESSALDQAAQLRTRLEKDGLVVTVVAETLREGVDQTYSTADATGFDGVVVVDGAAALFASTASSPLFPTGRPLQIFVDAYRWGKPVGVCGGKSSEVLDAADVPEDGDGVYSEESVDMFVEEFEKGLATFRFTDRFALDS
CATPO E484I variant, sequence (M4GGR5 entry or part of it E503I): as the sequence (M4GGR5 entry or part of it T207D) above

Regarding `Oc1cccc(O)c1O` [Pyrogallol, pyrogallol], the Ki (as a rule, the dissociation constant of the complex between target and ligand, obtained from inhibition or displacement) in assay [1] was 58 ± 1.8 mM; in assay [5] it was 55 ± 5.5 mM. Further, the figures for the K m in assay [2], in assay [3] and in assay [4] were 37 ± 0.5 mM, 36 ± 0.7 mM and 41 ± 1 mM, respectively.

The values above are taken from article PMC10836395, “Investigation of how gate residues in the main channel affect the catalytic activity of Scytalidium thermophilum catalase” (Acta Crystallographica. Section D, Structural Biology, 2024).
